Drawing on PubChem BioAssay AID1949 (Southern Research Institute, 2009), this text covers IC50 for 51 compounds.

SMILES strings stand for the structures. ≈ marks a conversion by molar mass, not a printed value. Records with an inconclusive call do not appear. Calls of active or inactive are those of the source. The rule behind the calls is not given here.

The subject of this experiment is M. tuberculosis H37Rv growth inhibition. Briefly: Mycobacterium tuberculosis H37Rv growth inhibition, cell based, confirmatory dose response (AID 1949).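 Note: bacteria grown 7 days with compound before Alamar blue readout.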
Broadly, the IC50 is the point on the concentration scale where inhibition reaches its midpoint. In the case of `O=C(CCN1C(=O)C2C3C=CC(C4CC34)C2C1=O)Oc1cccc2cccnc12` (stereo unspecified), the IC50 was 1.46 µg/mL (≈ 3.76 µM).

Turning to `CC1=CC(C)(C)N2C(=O)C3(Nc4ccccc4S3)c3cc(C)cc1c32` (stereo unspecified), the IC50 is 16.9 µg/mL (≈ 48.6 µM).

Take `CN(C)c1ccc(Nc2ncnc3ccc(Br)cc23)cc1`: the half-inhibitory concentration (IC50) is 1.08 µg/mL (≈ 3.15 µM).

`CCCCn1c(NC(=S)Nc2ccccc2)nc2ccccc21`: the half-maximal inhibitory concentration (IC50) is 4.83 µg/mL (≈ 14.9 µM).

On to `COc1ccc2oc(=O)c(C(=O)Oc3ccc(Cl)cc3)cc2c1`, for which the IC50 is > 50 µg/mL (inactive).

Regarding `CCc1ccc(O)c(NC(=S)NC(=O)c2cccc3ccccc23)c1`, the IC50 is 0.16 µg/mL (≈ 0.457 µM).

Turning to `CCOC(=O)C(C)Oc1ccc2c(=O)c(-c3ccc(Cl)cc3)coc2c1` (stereo unspecified), the IC50 was > 50 µg/mL (inactive).

`Cc1ccc(NC(=O)NC23CC4(C)CC(C)(CC(C)(C4)C2)C3)cc1`: the IC50 is > 50 µg/mL (inactive).

Take `OC(COc1ccc2ccccc2c1)CN1CCCN(CC(O)COc2ccc3ccccc3c2)CC1` (stereo unspecified): the half-maximal inhibitory concentration (IC50) was 0.73 µg/mL (≈ 1.46 µM).

On to `Oc1ccc(Cl)cc1C1=NNC(c2ccccc2Cl)C1` (stereo unspecified), for which the IC50 is 0.65 µg/mL (≈ 2.12 µM).

Regarding `Cc1cccc(NC(=O)Nc2ccc(C(F)(F)F)cc2)c1`, the IC50 is 8.07 µg/mL (≈ 27.4 µM).

Regarding `O=[N+]([O-])c1ccccc1C1Nc2ccc(Cl)cc2C2C=CCC21` (stereo unspecified), the IC50 is 10.5 µg/mL (≈ 32.3 µM).

Take `CN1CCN(c2ccc(NC(=S)NC(=O)c3cc4ccccc4o3)cc2)CC1`: the half-maximal inhibitory concentration (IC50) is 10.7 µg/mL (≈ 27.2 µM).

Take `Cc1ccc(-c2ccc(OCC(=O)OCc3ccccc3)cc2)cc1`: the IC50 is 0.23 µg/mL (≈ 0.692 µM).

Regarding `CCc1c(C)sc(NC(=S)NC2CCN(Cc3ccccc3)CC2)c1C(=O)OC`, the half-inhibitory concentration (IC50) was 1.69 µg/mL (≈ 3.92 µM).

With `COc1ccc(CCNc2nc(N3CCCC3)nc(N3CCCC3)n2)cc1OC`, the IC50 is 5.35 µg/mL (≈ 13.4 µM).

Consider `CC(=O)Oc1cccc2ccc(/C=C/c3ccc(Cl)cc3)nc12`, for which the IC50 is less than 0.1 µg/mL.

For `O=[N+]([O-])c1ncn(Cc2ccc(Cl)cc2)n1`, the IC50 was 7.25 µg/mL (≈ 30.4 µM).

On to `COc1ccc(CN2CCC(N(CCc3ccccc3)Cc3ccccc3)CC2)c(OC)c1`, for which the IC50 is 2.61 µg/mL (≈ 5.87 µM).

For `CCN(CC)CCNc1nc(-c2cccc(Cl)c2)nc2ccccc12`, the concentration for half-maximal inhibition (IC50) is 46 µg/mL (≈ 130 µM).

On to `O=C(Nc1nc2c(Cl)cccc2s1)c1ccc([N+](=O)[O-])o1`, for which the IC50 is 1.58 µg/mL (≈ 4.88 µM).

In the case of `CN1CCN(c2ccc(NC(=O)c3ccc(Cl)c(Cl)c3)cc2)CC1`, the IC50 was > 50 µg/mL (inactive).

For the compound `O=C(Nc1cccc(C(F)(F)F)c1)Nc1cc(F)c(F)cc1Cl`, the IC50 is 19.5 µg/mL (≈ 55.5 µM).

On to `CCOC(=O)COc1ccc(OCc2ccccc2)cc1`, for which the IC50 is 1.21 µg/mL (≈ 4.23 µM).

Regarding `CN(Cc1ccccc1)C(=S)NC(=O)c1cccs1`, the IC50 was 0.74 µg/mL (≈ 2.55 µM).

As for `COc1ccc(C)cc1NC(=O)c1ccc(Cc2ccc(C)cc2)o1`, the IC50 is 2.71 µg/mL (≈ 8.08 µM).

With `O=C(CC(O)(C(F)(F)F)C(F)(F)F)Nc1ccc(Cl)c(Cl)c1`, the IC50 is 1.51 µg/mL (≈ 4.08 µM).

Regarding `CC1(C)Cc2c(sc3nc(SCC(=O)Nc4ccc(Br)cc4)nc(N)c23)CS1`, the IC50 is 6.22 µg/mL (≈ 12.6 µM).

Regarding `CC1C(c2ccccc2)=[N+]([O-])C(C)(c2ccc(F)cc2)N1O` (stereo unspecified), the IC50 is > 50 µg/mL (inactive).

As for `CCOC(=O)COc1ccc2c3c(c(=O)oc2c1C)CCC3`, the IC50 was > 50 µg/mL (inactive).

Turning to `CC(=O)Oc1cc(C)cc2oc(=O)c3c(c12)CCCC3`, the half-maximal inhibitory concentration (IC50) was 3.85 µg/mL (≈ 14.1 µM).

Regarding `CC12CC3CC(C)(C1)CC(CNCc1ccccc1O)(C3)C2`, the concentration for half-maximal inhibition (IC50) was 2.89 µg/mL (≈ 9.65 µM).

As for `CCOC(=O)Cc1c(C)nc2c(-c3ccc(Cl)cc3)c[nH]n2c1=O`, the IC50 was 1.95 µg/mL (≈ 5.64 µM).

Regarding `Cc1cc(OC(F)F)ccc1NC(=O)Nc1ccc([N+](=O)[O-])cc1`, the 50% inhibitory concentration (IC50) was 22.9 µg/mL (≈ 67.9 µM).

With `CCCCCn1c(NCc2cccs2)nc2ccccc21`, the IC50 is 3.41 µg/mL (≈ 11.4 µM).

On to `COc1ccc2nc(NC(=O)C(Sc3ccccc3)c3ccccc3)sc2c1` (stereo unspecified), for which the IC50 is 4.87 µg/mL (≈ 12 µM).

Regarding `CN(C)CCC(=O)c1ccc(Br)cc1`, the half-inhibitory concentration (IC50) was 0.61 µg/mL (≈ 2.38 µM).

Regarding `O=C(Nc1ccc(Cl)cc1)Nc1ccc(F)c(F)c1`, the IC50 was 0.94 µg/mL (≈ 3.33 µM).

Regarding `Cc1ccc(OCC(=O)c2ccccc2)cc1C`, the IC50 was 4.92 µg/mL (≈ 20.5 µM).

`Clc1cc(Br)ccc1OCCCCn1ccnc1`: the half-maximal inhibitory concentration (IC50) is 1.11 µg/mL (≈ 3.37 µM).

Turning to `Brc1ccc(-c2nn(-c3ccccc3)cc2CNCc2ccccc2)cc1`, the half-maximal inhibitory concentration (IC50) is 1.24 µg/mL (≈ 2.96 µM).

`COC(=O)CSc1nc(-c2ccccc2)c(-c2ccccc2)o1`: the IC50 was 5.58 µg/mL (≈ 17.1 µM).

In the case of `COc1cccc(C2Oc3ccccc3C=C2[N+](=O)[O-])c1OC` (stereo unspecified), the IC50 was > 50 µg/mL (inactive).

In the case of `O=c1c2ccccc2nc(/C=C/c2ccc([N+](=O)[O-])o2)n1CCCO`, the IC50 was less than 0.1 µg/mL.

Turning to `Cc1cccc(NC(=S)NC(=O)CC23CC4CC(CC(C4)C2)C3)c1`, the IC50 is 2.89 µg/mL (≈ 8.44 µM).

`O=C(CSc1ccc(C(F)(F)F)cc1[N+](=O)[O-])OC1CCCCC1`: the half-inhibitory concentration (IC50) is 1.26 µg/mL (≈ 3.47 µM).

As to `CCCCNCCCCCOc1ccc(Cl)cc1Cl`, the IC50 was 4.18 µg/mL (≈ 13.7 µM).

Turning to `Cc1ccc(-c2nc(NC(=O)C34CC5CC(CC(C5)C3)C4)sc2C)cc1`, the IC50 was > 50 µg/mL (inactive).

For the compound `CCOC(=O)c1c(NC(C)=O)sc2c(OCC(O)CN(CC)CC)c(Br)ccc12` (stereo unspecified), the IC50 was 4.61 µg/mL (≈ 9.46 µM).

As to `O=C(Nc1ccc(-c2nc3ccccc3c(=O)o2)cc1)C1CCCCC1`, the IC50 was 23.9 µg/mL (≈ 68.7 µM).

Consider `O=C(CCNc1ccc(Cc2ccncc2)cc1)c1cccs1`, for which the half-maximal inhibitory concentration (IC50) is 5.83 µg/mL (≈ 18.1 µM).
